Activity calls are given as the source filed them. The calls are words filed in the database; no cut-off is given here.
What was measured:
[1] = target: Heat shock protein HSP 90-beta (Homo sapiens) (UniProt P08238); assay: Inhibition of HSP90-mediated proliferation of human SKBR3cells after 72 hrs by sulforhodamine B assay
[2] = target: Heat shock protein HSP 90-beta (Homo sapiens) (UniProt P08238); assay: Binding affinity to HSP90 in human SKBR3 cells after 24 hrs by fluorescence polarization assay; details: SK-BR-3
[3] = target: RAC-alpha serine/threonine-protein kinase (Homo sapiens) (UniProt P31749); details: NCI-H526, 50 uM
Sequence of RAC-alpha serine/threonine-protein kinase (Homo sapiens) (P31749 whole entry): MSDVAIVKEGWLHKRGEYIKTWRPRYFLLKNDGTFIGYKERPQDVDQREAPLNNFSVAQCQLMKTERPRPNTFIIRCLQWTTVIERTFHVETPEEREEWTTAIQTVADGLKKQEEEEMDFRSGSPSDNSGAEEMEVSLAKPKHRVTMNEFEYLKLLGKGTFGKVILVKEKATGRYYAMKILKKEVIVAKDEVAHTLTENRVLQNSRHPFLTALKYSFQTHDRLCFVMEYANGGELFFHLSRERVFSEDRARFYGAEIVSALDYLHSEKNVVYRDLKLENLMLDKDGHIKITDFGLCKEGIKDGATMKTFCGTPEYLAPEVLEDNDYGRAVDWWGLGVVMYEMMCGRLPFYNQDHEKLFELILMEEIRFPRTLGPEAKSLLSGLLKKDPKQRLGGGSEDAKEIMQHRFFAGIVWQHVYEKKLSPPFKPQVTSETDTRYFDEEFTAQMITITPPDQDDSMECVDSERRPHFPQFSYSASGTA
Description: Inhibition of Akt-mediated antiapoptotic activity in human NCI-H526 cells assessed as reduction in BAD phosphorylation at 50 uM after 24 hrs by Western blot analysis

Sequence of Heat shock protein HSP 90-beta (Homo sapiens) (P08238 whole entry): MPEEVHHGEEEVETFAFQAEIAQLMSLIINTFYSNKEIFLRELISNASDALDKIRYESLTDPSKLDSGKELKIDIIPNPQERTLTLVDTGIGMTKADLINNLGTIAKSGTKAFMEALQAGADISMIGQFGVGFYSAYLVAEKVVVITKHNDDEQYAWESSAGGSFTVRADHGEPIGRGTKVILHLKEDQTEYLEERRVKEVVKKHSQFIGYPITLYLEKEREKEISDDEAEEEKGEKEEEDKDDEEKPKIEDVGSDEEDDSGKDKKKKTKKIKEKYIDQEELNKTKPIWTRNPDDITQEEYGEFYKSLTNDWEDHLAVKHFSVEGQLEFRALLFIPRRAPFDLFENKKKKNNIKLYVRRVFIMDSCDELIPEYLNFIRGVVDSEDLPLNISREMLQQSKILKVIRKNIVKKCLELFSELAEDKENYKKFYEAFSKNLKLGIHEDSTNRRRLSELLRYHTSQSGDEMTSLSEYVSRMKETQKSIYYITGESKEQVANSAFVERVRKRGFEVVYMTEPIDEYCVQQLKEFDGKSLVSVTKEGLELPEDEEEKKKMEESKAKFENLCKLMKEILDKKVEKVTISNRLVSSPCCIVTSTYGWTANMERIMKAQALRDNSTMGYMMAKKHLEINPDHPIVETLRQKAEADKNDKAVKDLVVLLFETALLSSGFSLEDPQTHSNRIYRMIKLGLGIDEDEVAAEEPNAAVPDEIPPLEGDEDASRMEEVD

Compound | inhibition [1] | Activity [2] | inhibition [3]
CC(C)NCCCn1c(Cc2cc3c(cc2I)OCO3)nc2c(N)nc(F)nc21 | Active | Active | 
O=c1[nH]c2ccccc2n1C1CCN(Cc2ccc(-c3nc4cc5[nH]cnc5cc4nc3-c3ccccc3)cc2)CC1 |  |  | Active
